In patent US5846934A, “Pure somatostatin antagonist and methods of use thereof” (American Cyanamid Company, priority 1997, dated 1998):
Positions of bridges follow the written chain, without caps; N, C: chain ends. Non-standard residues stand in square brackets, D forms with d. Residues, ends and D or L forms follow the SMILES beside them. NMePhe(4-NO2) = CN[C@@H](Cc1ccc([N+](=O)[O-])cc1)C(=O)O; Phe(4-NO2) = N[C@@H](Cc1ccc([N+](=O)[O-])cc1)C(=O)O; 2Nal = N[C@@H](Cc1ccc2ccccc2c1)C(=O)O; d2Nal = N[C@H](Cc1ccc2ccccc2c1)C(=O)O; Orn = NCCC[C@H](N)C(=O)O; Abu = CC[C@H](N)C(=O)O

Tests used:
[1] = target: T1, rat somatostatin receptor subtype 2 (SSTR2) (Rattus norvegicus, UniProt P30680); assay: Yeast assay, somatostatin antagonist activity (zone of no growth in presence of S-14); format: cell-based; design: key: 1 is minimum antagonist activity; 5 is maximum antagonist activity; --: When no activity is observed, the result is indicated by a dash; conditions: rating on a scale of 1-5 from zone of no growth; 5 μL of 1 mg/mL S-14 added to each plate
T1 construct: expressed in transfected cells; host or cells: Saccharomyces cerevisiae LY364 bearing pJH2 (SSTR2) and pLP82 (G protein)
T1 sequence (P30680 whole entry): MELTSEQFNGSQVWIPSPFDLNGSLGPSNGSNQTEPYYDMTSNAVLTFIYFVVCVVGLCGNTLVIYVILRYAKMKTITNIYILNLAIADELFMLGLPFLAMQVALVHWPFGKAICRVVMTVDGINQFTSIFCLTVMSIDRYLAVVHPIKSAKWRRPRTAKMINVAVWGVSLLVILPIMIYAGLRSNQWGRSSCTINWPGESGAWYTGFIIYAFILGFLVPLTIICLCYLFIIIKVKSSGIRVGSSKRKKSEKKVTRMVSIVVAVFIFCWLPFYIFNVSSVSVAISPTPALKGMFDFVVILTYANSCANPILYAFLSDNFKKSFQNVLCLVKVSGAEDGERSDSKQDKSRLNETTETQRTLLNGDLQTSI
Experimental: (§1) In this evaluation, yeast cells which have been specifically modified to functionally express rat somatostatin receptor subtype 2 (SSTR2) on their cell surfaces are used. S. Cerevisiae LY364 cells are plated in a standard synthetic agar medium which lacks histidine. In the absence of a somatostatin receptor agonist, the auxotrophic (his3) cells are unable to grow. In the presence of somatostatin, or a somatostatin agonist, the expression of an enzyme (His3p: imidazole-glycerol phosphate dehydratase) which is essential for histidine biosynthesis is induced. The cells become competent to produce histidine, resulting in a zone of growing cells around the applied test compound. The zone is measured and the test compound is given an agonist rating on a scale of 1-5 wherein 1 is minimum agonist activity and 5 is maximum agonist activity.
To evaluate the somatostatin antagonist activity of a test compound, the above procedure is followed except on day 3, 5 μL of 1 mg/mL of somatostatin, S-14, is added to each plate, before applying the test compound. If the test compound is an antagonist of somatostatin, then a zone of no growth will appear within the cell growth zone. This zone of no growth is measured and the test compound is given an antagonist rating on a scale of 1-5 wherein 1 is minimum antagonist activity and 5 is maximum antagonist activity.
The results are shown in Table I. When no activity is observed, the result is indicated by a dash.
On day 3, add 5 μL 1 mg/mL S-14 to each plate.
(§2) Day 7. Growth in response to somatostatin should be readily observable. Rate extent of growth or inhibition of growth according to rating scale described hereinabove.

[2] = target: T1, rat somatostatin receptor subtype 2 (SSTR2); assay: Yeast assay, somatostatin agonist activity (zone of growth of modified yeast cells); format: cell-based; design: key: 1 is minimum agonist activity; 5 is maximum agonist activity; --: When no activity is observed, the result is indicated by a dash; conditions: rating on a scale of 1-5 from zone of growth; S. cerevisiae LY364 expressing rat SSTR2
Experimental: as §1
1) Inoculate 2 mL SCD-ura-trp liquid medium in Falcon 2051 tube with a single colony taken from a plate containing LY364 (MATa ura3-52 leu2 his3 trp1 lys2 ade2 far1:: LYS2 fus1:: FUS1-HIS3 gpa1::hisG sst2::.ADE2 bearing the SSTR2 expression plasmid, pJH2, and the G protein expression plasmid, pLP82) cells.
3) Add 1 mL of LY364 culture to 1 liter of agar medium.
8) Incubate plates at 30° C.
Day 5. Begin checking plates for growth around applied compounds.
as §2

[3] = target: SSTR2 (Rattus norvegicus, UniProt P30680); assay: Competitive binding, displacement of [125I]Tyr11 S-14; design: expressed in transfected cells; membrane protein; conditions: for Ki: calculated by method of Cheng and Prusoff, read-out: SSTR2 Binding Affinity Ki; for IC50: displacement of [125I]Tyr11 S-14, 250 pM, room temperature, 2 hours, read-out: SSTR2 Binding Affinity IC50
Chain of SSTR2 (P30680 whole entry): as above
Experimental: In this evaluation the concentration of test compound required to displace 50% of somatostatin, SRIF, from the SRIF receptor subtypes expressed in mammalian cells is measured, i.e., the concentration required to inhibit 50% of [^125 I] Tyr^11 S-14 (Amersham) (IC50) from binding to the SRIF receptor subtypes.
Radiolabeled SRIF is mixed with pituitary cells, the test compound is added, the mixture is incubated and the radioactivity is measured as compared to control. Reduced radioactivity indicates successful competitive binding of the test compound to the pituitary cell receptor. The concentration of the test compound in nanomolar units required to displace 50% of SRIF from the pituitary cell receptor is calculated and reported in Table II as the IC50 value. Also calculated is the inhibitory constant, Ki.
Tyr^11 S-14 (150,000 cpm at 2000 Ci/mmole, 250 pM final concentration). The binding reaction is initiated by adding 2-60 μg of membrane protein in a 170 μL volume. Final reaction volume is 200 μl/well. All incubations are carried out at room temperature for 2 hours. Free radioligand is separated from bound ligand by rapid filtration through a glass fiber filter (IH-201-HA) using an Inotech cell harvester. The filter is then washed several times with cold (4° C.) binding buffer lacking BSA and protease inhibitors prior to counting in an LKB gamma master counter (78% efficiency). Whatman GFC filters presoaked in 0.3% polyethylenimine (to decrease background) are used.
The IC50 values and Ki values are calculated using the well-known methods described by Y. Cheng and W. H. Prusoff, Biochem. Pharmacol. 22, 3099-3108 (1973), incorporated herein by reference thereto.

Row | SMILES | Yeast Assay Antagonist [1] | Yeast Assay Agonist [2] | Ki [3] | IC50 [3]
1 | C[C@@H](O)[C@@H]1NC(=O)[C@H](CCCCN)NC(=O)[C@@H](Cc2c[nH]c3ccccc23)NC(=O)[C@H](Cc2ccc(O)cc2)NC(=O)[C@H](NC(=O)[C@@H](N)Cc2ccc([N+](=O)[O-])cc2)CSSC[C@@H](C(=O)N[C@H](Cc2ccc(O)cc2)C(N)=O)NC1=O [4-NO2 Phe Tyr Lys Thr D-Tyr] | 4 | -- | 1.5 nM | 3 nM
2 | C[C@@H](O)[C@@H]1NC(=O)[C@H](CCCCN)NC(=O)[C@@H](Cc2c[nH]c3ccccc23)NC(=O)[C@H](Cc2ccc(O)cc2)NC(=O)[C@H](NC(=O)[C@@H](N)Cc2ccc3ccccc3c2)CSSC[C@@H](C(=O)N[C@@H](Cc2ccc(O)cc2)C(N)=O)NC1=O [L-Nal(2) Tyr Lys Thr Tyr] (H-[2Nal][dC]Y[dW]KTCY-NH2; disulfide 2-7 (inferred); N-terminus and C-terminus assumed) | 1 | -- | 0.4 nM | 0.9 nM
3 | CC(=O)N[C@@H](Cc1ccc(I)cc1)C(=O)N[C@@H]1CSSC[C@@H](C(=O)N[C@H](Cc2ccc(O)cc2)C(N)=O)NC(=O)[C@H]([C@@H](C)O)NC(=O)[C@H](CCCCN)NC(=O)[C@@H](Cc2c[nH]c3ccccc23)NC(=O)[C@H](Cc2ccc(O)cc2)NC1=O [Ac-4-IPhe Tyr Lys Thr D-Tyr] | 4 | -- |  | 
4 | CC(C)[C@@H]1NC(=O)[C@H](CCCN)NC(=O)[C@@H](Cc2c[nH]c3ccccc23)NC(=O)[C@H](Cc2ccc(O)cc2)NC(=O)[C@H](NC(=O)[C@@H](N)Cc2ccc([N+](=O)[O-])cc2)CSSC[C@@H](C(=O)N[C@@H](Cc2ccc(O)cc2)C(N)=O)NC1=O [4-NO2 Phe Tyr Orn Val Tyr] (H-[Phe(4-NO2)][dC]Y[dW][Orn]VCY-NH2; disulfide 2-7 (inferred); N-terminus and C-terminus assumed) | 1 | -- |  | 
5 | C[C@@H](O)[C@@H]1NC(=O)[C@H](CCCCN)NC(=O)[C@@H](Cc2c[nH]c3ccccc23)NC(=O)[C@H](Cc2ccc(O)cc2)NC(=O)[C@H](NC(=O)[C@@H](N)Cc2ccc([N+](=O)[O-])cc2)CSSC[C@@H](C(=O)N[C@@H](Cc2ccc(O)cc2)C(N)=O)NC1=O [4-NO2 Phe Tyr Lys Thr Tyr] | 5 | -- | 1.33 nM | 3 nM
6 | CC[C@@H]1NC(=O)[C@H](CCCCN)NC(=O)[C@@H](Cc2c[nH]c3ccccc23)NC(=O)[C@H](Cc2ccc(O)cc2)NC(=O)[C@H](NC(=O)[C@@H](N)Cc2ccc([N+](=O)[O-])cc2)CSSC[C@@H](C(=O)N[C@@H](Cc2ccc(O)cc2)C(N)=O)NC1=O [4-NO2 Phe Tyr Lys Abu Tyr] (H-[Phe(4-NO2)][dC]Y[dW]K[Abu]CY-NH2; disulfide 2-7) | 3 | -- | 1.78 nM | 4 nM
7 | C[C@@H](O)[C@@H]1NC(=O)[C@H](CCCNC(=N)N)NC(=O)[C@@H](Cc2c[nH]c3ccccc23)NC(=O)[C@H](Cc2ccc(O)cc2)NC(=O)[C@H](NC(=O)[C@@H](N)Cc2ccc([N+](=O)[O-])cc2)CSSC[C@@H](C(=O)N[C@@H](Cc2ccc(O)cc2)C(N)=O)NC1=O [4-NO2 Phe Tyr Arg Thr Tyr] (H-[Phe(4-NO2)][dC]Y[dW]RTCY-NH2; disulfide 2-7 (inferred); N-terminus and C-terminus assumed) | 2 | -- | 25 nM | 57 nM
8 | CC(C)[C@@H]1NC(=O)[C@H](CCCCN)NC(=O)[C@@H](Cc2c[nH]c3ccccc23)NC(=O)[C@H](Cc2ccc(O)cc2)NC(=O)[C@H](NC(=O)[C@@H](N)Cc2ccc([N+](=O)[O-])cc2)CSSC[C@@H](C(=O)N[C@@H](Cc2ccc3ccccc3c2)C(N)=O)NC1=O [4-NO2 Phe Tyr Lys Val Nal(2)] (H-[Phe(4-NO2)][dC]Y[dW]KVC[2Nal]-NH2; disulfide 2-7 (inferred); N-terminus and C-terminus assumed) | 2 | -- | 3.1 nM | 7 nM
9 | CN[C@@H](Cc1ccc([N+](=O)[O-])cc1)C(=O)N[C@@H]1CSSC[C@@H](C(=O)N[C@@H](Cc2ccc(O)cc2)C(N)=O)NC(=O)[C@H](C(C)C)NC(=O)[C@H](CCCCN)NC(=O)[C@@H](Cc2c[nH]c3ccccc23)NC(=O)[C@H](Cc2ccc(O)cc2)NC1=O [NMe-4-NO2 Phe Tyr Lys Val Tyr] (H-[NMePhe(4-NO2)][dC]Y[dW]KVCY-NH2; disulfide 2-7 (inferred); N-terminus and C-terminus assumed) | 5 | -- | 2.67 nM | 6 nM
10 | CC(C)[C@@H]1NC(=O)[C@H](CCCCN)NC(=O)[C@@H](Cc2c[nH]c3ccccc23)NC(=O)[C@H](Cc2ccc(O)cc2)NC(=O)[C@H](NC(=O)[C@@H](N)Cc2ccc3ccccc3c2)CSSC[C@@H](C(=O)N[C@@H](Cc2ccc(O)cc2)C(N)=O)NC1=O [L-Nal(2) Tyr Lys Val Tyr] (H-[2Nal][dC]Y[dW]KVCY-NH2; disulfide 2-7) | 3 | -- | 2.22 nM | 5 nM
11 | CC(=O)N[C@@H](Cc1ccc2ccccc2c1)C(=O)N[C@@H]1CSSC[C@@H](C(=O)N[C@@H](Cc2ccc(O)cc2)C(N)=O)NC(=O)[C@H]([C@@H](C)O)NC(=O)[C@H](CCCCN)NC(=O)[C@@H](Cc2c[nH]c3ccccc23)NC(=O)[C@H](Cc2ccc(O)cc2)NC1=O [Ac-Nal(2) Tyr Lys Thr Tyr] (Ac-[2Nal][dC]Y[dW]KTCY-NH2; disulfide 2-7 (inferred); N-terminus and C-terminus assumed) | 1 | -- | 0.48 nM | 1 nM
12 | CC(C)[C@@H]1NC(=O)[C@H](CCCCN)NC(=O)[C@@H](Cc2c[nH]c3ccccc23)NC(=O)[C@H](Cc2ccc(O)cc2)NC(=O)[C@H](NC(=O)[C@H](N)Cc2ccc3ccccc3c2)CSSC[C@@H](C(=O)N[C@@H](Cc2ccc(O)cc2)C(N)=O)NC1=O [D-Nal(2) Tyr Lys Val Tyr] (H-[d2Nal][dC]Y[dW]KVCY-NH2; disulfide 2-7) | 2 | -- | 0.89 nM | 2 nM
13 | CC(C)[C@@H]1NC(=O)[C@H](CCCCN)NC(=O)[C@@H](Cc2c[nH]c3ccccc23)NC(=O)[C@H](Cc2ccc(O)cc2)NC(=O)[C@H](NC(=O)[C@@H](N)Cc2ccc([N+](=O)[O-])cc2)CSSC[C@@H](C(=O)N[C@@H](Cc2ccc(O)cc2)C(N)=O)NC1=O [4-NO2 Phe Tyr Lys Val Tyr] (H-[Phe(4-NO2)][dC]Y[dW]KVCY-NH2; disulfide 2-7 (inferred); N-terminus and C-terminus assumed) | 5 | -- | 12.9 nM | 29 nM
